Experimental data: patent US10399988B2, “4-aminopyrazolo[3,4-d]pyrimidinylazabicyclo derivatives and pharmaceutical composition comprising the same” (Daewoong Pharmaceutical Co., Ltd., priority 2016, dated 2019)

molecular target: BTK (Homo sapiens, UniProt Q06187); experiment: Inhibitory activity against BTK (ADP-Glo + BTK Kinase enzyme system kit)
Sequence (Q06187 whole entry): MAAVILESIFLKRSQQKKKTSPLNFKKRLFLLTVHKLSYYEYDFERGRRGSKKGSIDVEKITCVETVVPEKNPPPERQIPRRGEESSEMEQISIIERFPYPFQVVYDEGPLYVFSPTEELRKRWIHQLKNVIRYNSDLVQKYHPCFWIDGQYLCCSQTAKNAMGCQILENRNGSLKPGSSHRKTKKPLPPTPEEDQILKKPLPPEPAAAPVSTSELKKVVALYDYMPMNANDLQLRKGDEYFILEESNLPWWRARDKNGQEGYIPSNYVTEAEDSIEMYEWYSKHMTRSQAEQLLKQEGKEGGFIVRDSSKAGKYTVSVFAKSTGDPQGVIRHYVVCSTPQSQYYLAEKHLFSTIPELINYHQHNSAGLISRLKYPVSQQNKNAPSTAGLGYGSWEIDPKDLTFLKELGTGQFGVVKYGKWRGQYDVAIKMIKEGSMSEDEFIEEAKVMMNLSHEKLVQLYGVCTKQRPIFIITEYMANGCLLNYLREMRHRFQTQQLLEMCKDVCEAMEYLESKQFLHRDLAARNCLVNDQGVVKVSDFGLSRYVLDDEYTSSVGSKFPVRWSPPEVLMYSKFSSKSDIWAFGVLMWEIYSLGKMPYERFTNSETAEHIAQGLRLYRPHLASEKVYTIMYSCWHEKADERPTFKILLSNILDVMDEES

SMILES | IC50
C/C=C/C(=O)N1CC2CC1C(n1nc(-c3ccc(Oc4ccccc4)cc3)c3c(N)ncnc31)C2 (centres unmarked) [Ex. 3, (E)-1-(6-(4-amino-3-(4-phenoxyphenyl)-1H-pyrazolo[3,4-d]pyrimidin-1-yl)-2-azabicyclo[2.2.1]heptan-2-yl)but-2-en-1-one] | 202 nM
CC#CC(=O)N1CC2CC1C(n1nc(-c3ccc(Oc4ccccc4)cc3)c3c(N)ncnc31)C2 (centres unmarked) [Ex. 5, 1-(6-(4-amino-3-(4-phenoxyphenyl)-1H-pyrazolo[3,4-d]pyrimidin-1-yl)-2-azabicyclo[2.2.1]heptan-2-yl)but-2-yn-1-one] | 27.6 nM
C#CC(=O)N1CC2CC1C(n1nc(-c3ccc(C(=O)Nc4cc(C(F)(F)F)ccn4)cc3)c3c(N)ncnc31)C2 (centres unmarked) [Ex. 6, 4-(4-amino-1-(2-propioloyl-2-azabicyclo[2.2.1]heptan-6-yl)-1H-pyrazolo[3,4-d]pyrimidin-3-yl)-N-(4-(trifluoromethyl)pyridin-2-yl)benzamide] | 22.7 nM
C#CC(=O)N1CC2CC1C(n1nc(-c3cccc(C(=O)Nc4ccc(C(C)C)cc4)c3)c3c(N)ncnc31)C2 (centres unmarked) [Ex. 7, 3-(4-amino-1-(2-propioloyl-2-azabicyclo[2.2.1]heptan-6-yl)-1H-pyrazolo[3,4-d]pyrimidin-3-yl)-N-(4-isopropylphenyl)benzamide] | 31.6 nM
C=CC(=O)N1CC2CC1C(n1nc(-c3cccc(C(=O)Nc4ccc(C(C)C)cc4)c3)c3c(N)ncnc31)C2 (centres unmarked) [Ex. 8, 3-(1-(2-acryloyl-2-azabicyclo[2.2.1]heptan-6-yl)-4-amino-1H-pyrazolo[3,4-d]pyrimidin-3-yl)-N-(4-isopropylphenyl)benzamide] | 139 nM
C#CC(=O)N1CC2CC1C(n1nc(-c3cccc(C(=O)Nc4ccc(C(C)C)c(C)c4)c3)c3c(N)ncnc31)C2 (centres unmarked) [Ex. 9, 3-(4-amino-1-(2-propioloyl-2-azabicyclo[2.2.1]heptan-6-yl)-1H-pyrazolo[3,4-d]pyrimidin-3-yl)-N-(4-isopropyl-3-methylphenyl)benzamide] | 53.8 nM
C=CC(=O)N1CC2CC1C(n1nc(-c3cccc(C(=O)Nc4ccc(C(C)C)c(C)c4)c3)c3c(N)ncnc31)C2 (centres unmarked) [Ex. 10, 3-(1-(2-acryloyl-2-azabicyclo[2.2.1]heptan-6-yl)-4-amino-1H-pyrazolo[3,4-d]pyrimidin-3-yl)-N-(4-isopropyl-3-methylphenyl)benzamide] | 88 nM
C#CC(=O)N1CC2CC1CC2n1nc(-c2ccc(Oc3ccccc3)cc2)c2c(N)ncnc21 (centres unmarked) [Ex. 11, 1-(5-(4-amino-3-(4-phenoxyphenyl)-1H-pyrazolo[3,4-d]pyrimidin-1-yl)-2-azabicyclo[2.2.1]heptan-2-yl)prop-2-yn-1-one] | 2.8 nM
C#CC(=O)N1C[C@@H]2C[C@H]1C[C@H]2n1nc(-c2ccc(Oc3ccccc3)cc2)c2c(N)ncnc21 [Ex. 13, 1-((1S,4S,5R)-5-(4-amino-3-(4-phenoxyphenyl)-1H-pyrazolo[3,4-d]pyrimidin-1-yl)-2-azabicyclo[2.2.1]heptan-2-yl)prop-2-yn-1-one] | 2 nM
CCC#CC(=O)N1CC2CC1C(n1nc(-c3ccc(Oc4ccccc4)cc3)c3c(N)ncnc31)C2 (centres unmarked) [Ex. 16, 1-(6-(4-amino-3-(4-phenoxyphenyl)-1H-pyrazolo[3,4-d]pyrimidin-1-yl)-2-azabicyclo[2.2.1]heptan-2-yl)pent-2-yn-1-one] | > 1000 nM
C#CC(=O)N1CC2CC1C(n1nc(-c3cccc(C(=O)Nc4ccccc4)c3)c3c(N)ncnc31)C2 (centres unmarked) [Ex. 18, 3-(4-amino-1-(2-propioloyl-2-azabicyclo[2.2.1]heptan-6-yl)-1H-pyrazolo[3,4-d]pyrimidin-3-yl)-N-phenylbenzamide] | 6.9 nM
C=CC(=O)N1CC2CC1C(n1nc(-c3ccc(C(=O)Nc4ccccc4)cc3)c3c(N)ncnc31)C2 (centres unmarked) [Ex. 19, 4-(1-(2-acryloyl-2-azabicyclo[2.2.1]heptan-6-yl)-4-amino-1H-pyrazolo[3,4-d]pyrimidin-3-yl)-N-phenylbenzamide] | 10.8 nM
CC#CC(=O)N1CC2CC1C(n1nc(-c3ccc(C(=O)Nc4ccccc4)cc3)c3c(N)ncnc31)C2 (centres unmarked) [Ex. 20, 4-(4-amino-1-(2-(but-2-ynoyl)-2-azabicyclo[2.2.1]heptan-6-yl)-1H-pyrazolo[3,4-d]pyrimidin-3-yl)-N-phenylbenzamide] | > 1000 nM
C=CC(=O)N1CC2CC1C(n1nc(-c3cccc(C(=O)Nc4ccccc4)c3)c3c(N)ncnc31)C2 (centres unmarked) [Ex. 21, 3-(1-(2-acryloyl-2-azabicyclo[2.2.1]heptan-6-yl)-4-amino-1H-pyrazolo[3,4-d]pyrimidin-3-yl)-N-phenylbenzamide] | 63 nM
CC#CC(=O)N1CC2CC1C(n1nc(-c3cccc(C(=O)Nc4ccccc4)c3)c3c(N)ncnc31)C2 (centres unmarked) [Ex. 22, 3-(4-amino-1-(2-but-2-ynoyl-2-azabicyclo[2.2.1]heptan-6-yl)-1H-pyrazolo[3,4-d]pyrimidin-3-yl)-N-phenylbenzamide] | > 1000 nM
C=CC(=O)N1CC2CC1CC2n1nc(-c2ccc(C(=O)Nc3ccccc3)cc2)c2c(N)ncnc21 (centres unmarked) [Ex. 23, 4-(1-(2-acryloyl-2-azabicyclo[2.2.1]heptan-5-yl)-4-amino-1H-pyrazolo[3,4-d]pyrimidin-3-yl)-N-phenylbenzamide] | 78.8 nM

SMILES | IC50
C=CC(=O)N1CC2CC1CC2n1nc(-c2cccc(C(=O)Nc3ccccc3)c2)c2c(N)ncnc21 (centres unmarked) [Ex. 24, 3-(1-(2-acryloyl-2-azabicyclo[2.2.1]heptan-5-yl)-4-amino-1H-pyrazolo[3,4-d]pyrimidin-3-yl)-N-phenylbenzamide] | 560 nM
C=CC(=O)N1CC2CC1CC2n1nc(-c2cccc(Oc3ccccc3)c2)c2c(N)ncnc21 (centres unmarked) [Ex. 25, 1-(5-(4-amino-3-(3-phenoxyphenyl)-1H-pyrazolo[3,4-d]pyrimidin-1-yl)-2-azabicyclo[2.2.1]heptan-2-yl)prop-2-en-1-one] | 72.3 nM
C=CC(=O)N1CC2CC1C(n1nc(-c3cccc(C(=O)Nc4ccc(C(F)(F)F)nc4)c3)c3c(N)ncnc31)C2 (centres unmarked) [Ex. 26, 3-(1-(2-acryloyl-2-azabicyclo[2.2.1]heptan-6-yl)-4-amino-1H-pyrazolo[3,4-d]pyrimidin-3-yl)-N-(6-(trifluoromethyl)pyridin-3-yl)benzamide] | 295 nM
C=CC(=O)N1CC2CC1C(n1nc(-c3ccc(COC)cc3)c3c(N)ncnc31)C2 (centres unmarked) [Ex. 27, 1-(6-(4-amino-3-(4-(methoxymethyl)phenyl)-1H-pyrazolo[3,4-d]pyrimidin-1-yl)-2-azabicyclo[2.2.1]heptan-2-yl)prop-2-en-1-one] | 29.6 nM
Nc1ncnc2c1c(-c1ccc(Oc3ccccc3)cc1)nn2C1CC2CC1N(C(=O)C#CC1CC1)C2 (centres unmarked) [Ex. 28, 1-(6-(4-amino-3-(4-phenoxyphenyl)-1H-pyrazolo[3,4-d]pyrimidin-1-yl)-2-azabicyclo[2.2.1]heptan-2-yl)-3-cyclopropylprop-2-yn-1-one] | 25.2 nM
C=CC(=O)N1CC2CC1C(n1nc(-c3ccc(C(=O)Nc4cc(C(F)(F)F)ccn4)cc3)c3c(N)ncnc31)C2 (centres unmarked) [Ex. 29, 4-(1-(2-acryloyl-2-azabicyclo[2.2.1]heptan-6-yl)-4-amino-1H-pyrazolo[3,4-d]pyrimidin-3-yl)-N-(4-(trifluoromethyl)pyridin-2-yl)benzamide] | 16.9 nM
C#CC(=O)N1CC2CC1C(n1nc(-c3ccc(-c4ccccc4)cc3)c3c(N)ncnc31)C2 (centres unmarked) [Ex. 30, 1-(6-(4-amino-3-(biphenyl-4-yl)-1H-pyrazolo[3,4-d]pyrimidin-1-yl)-2-azabicyclo[2.2.1]heptan-2-yl)prop-2-yn-1-one] | > 1000 nM
C#CC(=O)N1CC2CC1C(n1nc(-c3ccc(Nc4ccccc4)cc3)c3c(N)ncnc31)C2 (centres unmarked) [Ex. 31, 1-(6-(4-amino-3-(4-(phenylamino)phenyl)-1H-pyrazolo[3,4-d]pyrimidin-1-yl)-2-azabicyclo[2.2.1]heptan-2-yl)prop-2-yn-1-one] | 12.5 nM
C=CC(=O)N1CC2CC1C(n1nc(-c3ccc(Oc4ccncc4)cc3)c3c(N)ncnc31)C2 (centres unmarked) [Ex. 36, 1-(6-(4-amino-3-(4-(pyridin-4-yloxy)phenyl)-1H-pyrazolo[3,4-d]pyrimidin-1-yl)-2-azabicyclo[2.2.1]heptan-2-yl)prop-2-en-1-one] | > 1000 nM
C=CC(=O)N1CC2CC1C(n1nc(-c3ccc(NC(=O)c4ccccc4)cc3)c3c(N)ncnc31)C2 (centres unmarked) [Ex. 37, N-(4-(1-(2-acryloyl-2-azabicyclo[2.2.1]heptan-6-yl)-4-amino-1H-pyrazolo[3,4-d]pyrimidin-3-yl)phenyl)benzamide] | 5.1 nM
C=CC(=O)N1CC2CC1C(n1nc(-c3ccc(NC(=O)c4ccccn4)cc3)c3c(N)ncnc31)C2 (centres unmarked) [Ex. 38, N-(4-(1-(2-acryloyl-2-azabicyclo[2.2.1]heptan-6-yl)-4-amino-1H-pyrazolo[3,4-d]pyrimidin-3-yl)phenyl)picolinamide] | 8.2 nM
C=CC(=O)N1CC2CC1C(n1nc(-c3ccc(NC(=O)Nc4ccccc4)cc3)c3c(N)ncnc31)C2 (centres unmarked) [Ex. 39, 1-(4-(1-(2-acryloyl-2-azabicyclo[2.2.1]heptan-6-yl)-4-amino-1H-pyrazolo[3,4-d]pyrimidin-3-yl)phenyl)-3-phenylurea] | 15.2 nM
C=CC(=O)N1CC2CC1C(n1nc(-c3ccc(Oc4cccc(C)c4)cc3)c3c(N)ncnc31)C2 (centres unmarked) [Ex. 40, 1-(6-(4-amino-3-(4-(m-tolyloxy)phenyl)-1H-pyrazolo[3,4-d]pyrimidin-1-yl)-2-azabicyclo[2.2.1]heptan-2-yl)prop-2-en-1-one] | 5.5 nM
Nc1ncnc2c1c(-c1ccc(Oc3ccccc3)cc1)nn2C1CC2CC1N(C(=O)/C=C/CBr)C2 (centres unmarked) [Ex. 44, (E)-1-(6-(4-amino-3-(4-phenoxyphenyl)-1H-pyrazolo[3,4-d]pyrimidin-1-yl)-2-azabicyclo[2.2.1]heptan-2-yl)-4-bromobut-2-en-1-one] | 5.9 nM
CN(C)C/C=C/C(=O)N1CC2CC1C(n1nc(-c3ccc(Oc4ccccc4)cc3)c3c(N)ncnc31)C2 (centres unmarked) [Ex. 45, (E)-1-(6-(4-amino-3-(4-phenoxyphenyl)-1H-pyrazolo[3,4-d]pyrimidin-1-yl)-2-azabicyclo[2.2.1]heptan-2-yl)-4-(dimethylamino)but-2-en-1-one] | 11.4 nM
C=CC(=O)N1CC2CC1C(n1nc(-c3ccc(C(=O)Nc4cccc(CC)c4)cc3)c3c(N)ncnc31)C2 (centres unmarked) [Ex. 46, 4-(1-(2-acryloyl-2-azabicyclo[2.2.1]heptan-6-yl)-4-amino-1H-pyrazolo[3,4-d]pyrimidin-3-yl)-N-(3-ethylphenyl)benzamide] | 72 nM
